Data reported in US6384220B2, “Para-aryl or heterocyclic substituted phenyl glucokinase activators” (Hoffmann-La Roche Inc., priority 2000, dated 2002).

Compound	melting point
O=C(Nc1nccs1)C(CC1CCCC1)c1ccc(OCc2ccccc2)cc1 (centres unmarked) [Example 11, 2-(4-Benzyloxy-phenyl)-3-cyclopentyl-N-thiazol-2-yl-propionamide]	48 to 50 °C
O=C(Nc1nccs1)C(CC1CCCC1)c1ccc(-c2cccs2)cc1 (centres unmarked) [Example 7, 3-Cyclopentyl-N-thiazol-2-yl-2-(4-thiophen-2-yl-phenyl)-propionamide]	194 °C (dec.)
COC(=O)c1csc(NC(=O)C(CC2CCCC2)c2ccc(-c3ccccc3)cc2)n1 (centres unmarked) [Example 2, 2-(2-Biphenyl-4-yl-3-cyclopentyl-propionylamino)-thiazole-4-carboxylic acid methyl ester]	98 to 101 °C
O=C(Nc1nccs1)C(CC1CCCC1)c1ccc(Oc2ccccc2)cc1 (centres unmarked) [Example 12, 3-Cyclopentyl-2-(4-phenoxy-phenyl)-N-thiazol-2-yl-propionamide]	154.9 to 155.1 °C
O=C(Nc1nc(CO)cs1)C(CC1CCCC1)c1ccc(Oc2ccccc2)cc1 (centres unmarked) [Example 13, 3-Cyclopentyl-N-(4-hydroxymethyl-thiazol-2-yl)-2-(4-phenoxy-phenyl)-propionamide]	83.7 to 87 °C
O=C(Nc1nccs1)C(CC1CCCC1)c1ccc(-c2ccccc2)cc1 (centres unmarked) [Example 1, 2-Biphenyl-4-yl-3-cyclopentyl-N-thiazol-2-yl-propionamide]	194 to 195 °C
O=C(Nc1nccs1)C(CC1CCCC1)c1ccc(-c2cccc3ccccc23)cc1 (centres unmarked) [Example 5, 3-Cyclopentyl-2-(4-naphthalen-1-yl-phenyl)-N-thiazol-2-yl-propionamide]	202 to 204 °C
O=C(Nc1nccs1)C(CC1CCCC1)c1ccc(-c2ccncc2)cc1 (centres unmarked) [Example 9, 3-Cyclopentyl-2-(4-pyridin-4-yl-phenyl)-N-thiazol-2-yl-propionamide]	213 to 215 °C
O=C(Nc1nccs1)C(CC1CCCC1)c1ccc(-c2cccnc2)cc1 (centres unmarked) [Example 8, 3-Cyclopentyl-2-(4-pyridin-3-yl-phenyl)-N-thiazol-2-yl-propionamide]	48 to 52 °C
O=C(Nc1nccs1)C(CC1CCCC1)c1ccc(-c2ccc3[nH]ccc3c2)cc1 (centres unmarked) [Example 10, 3-Cyclopentyl-2-[4-(1H-indol-5-yl)-phenyl]-N-thiazol-2-yl-propionamide]	112 to 115 °C
O=C(Nc1nc(CCO)cs1)C(CC1CCCC1)c1ccc(-c2cccc3ccccc23)cc1 (centres unmarked) [Example 6, 3-Cyclopentyl-N-[4-(2-hydroxyethyl)-thiazol-2-yl]-2-(4-naphthalen-1-yl-phenyl)-propionamide]	84 to 87 °C
O=C(Nc1nccs1)[C@H](CC1CCCC1)c1ccc(-c2ccccc2)cc1 [Example 4, (2R)-2-Biphenyl-4-yl-3-cyclopentyl-N-thiazol-2-yl-propionamide]	132 to 134 °C
O=C(Nc1nccs1)C(CC1CCCC1)c1ccc(N2CCOCC2)cc1 (centres unmarked) [Example 18, 3-Cyclopentyl-2-(4-morpholin-4-yl-phenyl)-N-thiazol-2-yl-propionamide]	244 to 246 °C
O=C(Nc1nc(CO)cs1)C(CC1CCCC1)c1ccc(-c2ccccc2)cc1 (centres unmarked) [Example 3, 2-Biphenyl-4-yl-3-cyclopentyl-N-(4-hydroxymethyl-thiazol-2-yl)-propionamide]	102 to 104 °C

Other lines, results leading:

melting point	Compound
73 to 77 °C	O=C(Nc1ccccn1)C(CC1CCCC1)c1ccc(-c2cccc3ccccc23)cc1 (centres unmarked) [Example 25, 3-Cyclopentyl-2-(4-naphthalen-1-yl-phenyl)-N-pyridin-2-yl-propionamide]
155 to 158 °C	O=C(O)c1ccc(NC(=O)C(CC2CCCC2)c2ccc(-c3cccc4ccccc34)cc2)nc1 (centres unmarked) [Example 26, 6-[3-Cyclopentyl-2-(4-naphthalen-1-yl-phenyl)-propionylamino]-nicotinic acid]
249 to 251 °C	O=C(Nc1nccs1)C(CC1CCCC1)c1ccc(S(=O)(=O)c2ncc[nH]2)cc1 (centres unmarked) [Example 20, 3-Cyclopentyl-2-[4-(1H-imidazole-2-sulfonyl)-phenyl]-N-thiazol-2-yl-propionamide]
271 to 272 °C (dec.)	O=C(O)c1ccc(NC(=O)C(CC2CCCC2)c2ccc(-c3ccccc3)cc2)nc1 (centres unmarked) [Example 23, 6-(2-Biphenyl-4-yl-3-cyclopentyl-propionylamino)-nicotinic acid]
85 to 88 °C	CNC(=O)NC(=O)C(CC1CCCC1)c1ccc(-c2cccc3ccccc23)cc1 (centres unmarked) [Example 35, 1-[3-Cyclopentyl-2-(4-naphthalen-1-yl-phenyl)-propionyl]-3-methyl urea]
139 to 140 °C	O=C(Nc1ccccn1)C(CC1CCCC1)c1ccc(-c2cccnc2)cc1 (centres unmarked) [Example 28, 3-Cyclopentyl-N-pyridin-2-yl-2-(4-pyridin-3-yl-phenyl)-propionamide]
67 to 70 °C	O=C(Nc1ccc(CO)cn1)C(CC1CCCC1)c1ccc(-c2ccccc2)cc1 (centres unmarked) [Example 24, 2-Biphenyl-4-yl-3-cyclopentyl-N-(5-hydroxymethyl-pyridin-2-yl)-propionamide]
63 to 65 °C	COC(=O)c1ccc(NC(=O)C(CC2CCCC2)c2ccc(-c3ccccc3)cc2)nc1 (centres unmarked) [Example 22, 6-(2-Biphenyl-4-yl-3-cyclopentyl-propionylamino)-nicotinic acid methyl ester]
158 to 160 °C	CNC(=O)NC(=O)C(CC1CCCC1)c1ccc(-c2cccnc2)cc1 (centres unmarked) [Example 36, 1-[3-Cyclopentyl-2-(4-pyridin-3-yl-phenyl)-propionyl]-3-methyl-urea]
206 to 207 °C	CNC(=O)NC(=O)C(CC1CCCC1)c1ccc(N2CCOCC2)cc1 (centres unmarked) [Example 39, 1-[3-Cyclopentyl-2-(4-morpholin-4-yl-phenyl)-propionyl]-3-methyl-urea]
184 to 185 °C	NC(=O)NC(=O)C(CC1CCCC1)c1ccc(-c2ccccc2)cc1 (centres unmarked) [Example 33, (2-Biphenyl-4-yl-3-cyclopentyl-propionyl) urea]
72 to 75 °C	O=C(Nc1ccc(CO)cn1)C(CC1CCCC1)c1ccc(-c2cccc3ccccc23)cc1 (centres unmarked) [Example 27, 3-Cyclopentyl-N-(5-hydroxymethyl-pyridin-2-yl)-2-(4-naphthalen-1-yl-phenyl)-propionamide]
195 to 197 °C	CNC(=O)NC(=O)C(CC1CCCC1)c1ccc(-c2ccccc2)cc1 (centres unmarked) [Example 34, 1-(2-Biphenyl-4-yl-3-cyclopentyl-propionyl)-3-methyl urea]
180 to 182 °C	O=C(Nc1nccs1)C(CC1CCCC1)c1ccc(S(=O)(=O)C2CCCC2)cc1 (centres unmarked) [Example 19, 2-(4-Cyclopentanesulfonyl-phenyl)-3-cyclopentyl-N-thiazol-2-yl-propionamide]
91 to 95 °C	CNC(=O)NC(=O)C(CC1CCCC1)c1ccc(-c2ccc3[nH]ccc3c2)cc1 (centres unmarked) [Example 37, 1-{3-Cyclopentyl-2-[4-(1H-indol-5-yl)-phenyl]-propionyl}-3-methyl-urea]
57 to 59 °C	O=C(Nc1ccccn1)C(CC1CCCC1)c1ccc(-c2ccccc2)cc1 (centres unmarked) [Example 21, 2-Biphenyl-4-yl-3-cyclopentyl-N-pyridin-2-yl-propionamide]
244 to 246 °C	CNC(=O)NC(=O)C(CC1CCCC1)c1ccc(S(=O)(=O)C2CCCCC2)cc1 (centres unmarked) [Example 40, 1-[2-(4-Cyclohexanesulfonyl-phenyl)-3-cyclopentyl-propionyl]-3-methyl-urea]
165 to 167 °C	O=C(Nc1ccccn1)C(CC1CCCC1)c1ccc(-c2ccncc2)cc1 (centres unmarked) [Example 29, 3-Cyclopentyl-N-pyridin-2-yl-2-(4-pyridin-4-yl-phenyl)-propionamide]
